Experimental findings from patent US20070117770A1, “Human ribosomal DNA (rDNA) and ribosomal RNA (rRNA) nucleic acids and uses thereof” (Cylene Pharmaceuticals, Inc., priority 2005, published 2007) are described below.

Assay in all cases: Protein kinase inhibition assay
One assay addresses CDK2/cyclinA(h) (Homo sapiens, UniProt P24941). It is filed as biochemical. As to conditions: read-out: percent residual activity of CDK2/cyclinA(h). How it is done: (§1) Certain compounds were tested for activity in protein kinase inhibition assays. All substrates were dissolved and diluted to working stocks in de-ionized water, apart from histone H1 (10× working stock in 20 mM MOPS pH 7.0), PDKtide (10× working stock in 50 mM Tris pH 7.0) ATF2 (which is typically stored at a 20× working stock in 50 mM Tris pH 7.5, 150 mM NaCl, 0.1 mM EGTA, 0.03% Brij-35, 50% glycerol, 1 mM benzamidine, 0.2 mM PMSF and 0.1% R-mercaptoethanol), KKLNRTLSFAEPG (SEQ ID NO:203) and RRRLSFAEPG (SEQ ID NO:204) (50 mM HEPES pH 7.4) and GGEEEEYFELVKKKK (SEQ ID NO:205) (20 mM MOPS pH 7.0). All kinases were pre-diluted to a 10× working concentration prior to addition into the assay. The composition of the dilution buffer for each kinase is detailed below.
(§2) In a final reaction volume of 25 μl, CDK2/cyclinA (h) (5-10 mU) is incubated with 8 mM MOPS pH 7.0, 0.2 mM EDTA, 0.1 mg/ml histone H1, 10 mM MgAcetate and [gamma-33P-ATP] (specific activity approx. 500 cpm/pmol, concentration as required). The reaction is initiated by the addition of the MgATP mix. After incubation for 40 minutes at room temperature, the reaction is stopped by the addition of 5 μl of a 3% phosphoric acid solution. 10 μl of the reaction is then spotted onto a P30 filtermat and washed three times for 5 minutes in 75 mM phosphoric acid and once in methanol prior to drying and scintillation counting.

Another assay addresses Lyn(m) (Mus musculus, UniProt P25911). Format: biochemical. The note with it: read-out: percent residual activity of Lyn(m). How it is done:
as §1
In a final reaction volume of 25 μl, Lyn (m) (5-10 mU) is incubated with 50 mM Tris pH 7.5, 0.1 mM EGTA, 0.1 mM Na3VO4, 0.1% R-mercaptoethanol, 0.1 mg/ml poly(Glu, Tyr) 4:1, 10 mM MgAcetate and [gamma-33P-ATP] (specific activity approx. 500 cpm/pmol, concentration as required). The reaction is initiated by the addition of the MgATP mix. After incubation for 40 minutes at room temperature, the reaction is stopped by the addition of 5 μl of a 3% phosphoric acid solution. […]

A further assay addresses MKK4(m) (Mus musculus, UniProt P47809). Format: biochemical. As to conditions: read-out: percent residual activity of MKK4(m). As for the experimental part: as §1
The reaction is initiated by the addition of the MGATP. After incubation for 40 minutes at room temperature, 5 μl of this incubation mix is used to initiate a JNK1α1 (h) assay, which is exactly as described on page 11 of this book except that ATF2 is replaced with 250 μM peptide.

The target in the next assay is PKA(b) (Bos taurus, UniProt P00517). Format: biochemical, bovine. The note with it: read-out: percent residual activity of PKA(b). How it is done: as §1
as §2, with “PKA (b)” for “CDK2/cyclinA (h)”, “30 μM LRRASLG (SEQ ID NO:209) (Kemptide),” for “0.1 mg/ml histone H1,”, “[y-33P-ATP]” for “[gamma-33P-ATP]”, “50” for “75”

A further assay has as its target PKBβ(h) (Homo sapiens, UniProt P31751). Format: biochemical. The note with it: read-out: percent residual activity of PKBβ(h). How it is done: as §1
as §2, with “PKBβ” for “CDK2/cyclinA”, “30 μM GRPRTSSFAEGKK (SEQ ID NO:232),” for “0.1 mg/ml histone H1,”

A further assay deals with ROCK-I(h) (Homo sapiens, UniProt Q13464). It is filed as biochemical. The note with it: read-out: percent residual activity of ROCK-I(h). How it is done:
as §1
as §2, with “ROCK-I” for “CDK2/cyclinA”, “30 μM […] (SEQ ID NO:222),” for “0.1 mg/ml histone H1,”

Another assay deals with Yes(h) (Homo sapiens, UniProt P07947). It is filed as biochemical. As to conditions: read-out: percent residual activity of Yes(h). As for the experimental part:
as §1
as §2, with “Yes” for “CDK2/cyclinA”, “poly(Glu, Tyr) 4:1,” for “histone H1,”, “Filtermat A” for “P30 filtermat”

Sequence of MKK4(m) (P47809 whole entry): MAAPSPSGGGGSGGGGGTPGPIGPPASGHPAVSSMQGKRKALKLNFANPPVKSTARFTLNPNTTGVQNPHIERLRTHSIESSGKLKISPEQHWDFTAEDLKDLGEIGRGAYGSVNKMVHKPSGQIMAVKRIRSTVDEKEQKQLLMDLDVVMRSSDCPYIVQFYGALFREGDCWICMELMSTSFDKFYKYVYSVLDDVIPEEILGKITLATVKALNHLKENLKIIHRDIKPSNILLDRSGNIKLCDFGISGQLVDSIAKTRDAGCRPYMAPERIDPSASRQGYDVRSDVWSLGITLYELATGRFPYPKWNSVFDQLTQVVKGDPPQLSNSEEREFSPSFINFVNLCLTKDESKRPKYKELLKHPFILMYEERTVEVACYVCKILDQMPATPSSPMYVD
Sequence of ROCK-I(h) (Q13464 whole entry): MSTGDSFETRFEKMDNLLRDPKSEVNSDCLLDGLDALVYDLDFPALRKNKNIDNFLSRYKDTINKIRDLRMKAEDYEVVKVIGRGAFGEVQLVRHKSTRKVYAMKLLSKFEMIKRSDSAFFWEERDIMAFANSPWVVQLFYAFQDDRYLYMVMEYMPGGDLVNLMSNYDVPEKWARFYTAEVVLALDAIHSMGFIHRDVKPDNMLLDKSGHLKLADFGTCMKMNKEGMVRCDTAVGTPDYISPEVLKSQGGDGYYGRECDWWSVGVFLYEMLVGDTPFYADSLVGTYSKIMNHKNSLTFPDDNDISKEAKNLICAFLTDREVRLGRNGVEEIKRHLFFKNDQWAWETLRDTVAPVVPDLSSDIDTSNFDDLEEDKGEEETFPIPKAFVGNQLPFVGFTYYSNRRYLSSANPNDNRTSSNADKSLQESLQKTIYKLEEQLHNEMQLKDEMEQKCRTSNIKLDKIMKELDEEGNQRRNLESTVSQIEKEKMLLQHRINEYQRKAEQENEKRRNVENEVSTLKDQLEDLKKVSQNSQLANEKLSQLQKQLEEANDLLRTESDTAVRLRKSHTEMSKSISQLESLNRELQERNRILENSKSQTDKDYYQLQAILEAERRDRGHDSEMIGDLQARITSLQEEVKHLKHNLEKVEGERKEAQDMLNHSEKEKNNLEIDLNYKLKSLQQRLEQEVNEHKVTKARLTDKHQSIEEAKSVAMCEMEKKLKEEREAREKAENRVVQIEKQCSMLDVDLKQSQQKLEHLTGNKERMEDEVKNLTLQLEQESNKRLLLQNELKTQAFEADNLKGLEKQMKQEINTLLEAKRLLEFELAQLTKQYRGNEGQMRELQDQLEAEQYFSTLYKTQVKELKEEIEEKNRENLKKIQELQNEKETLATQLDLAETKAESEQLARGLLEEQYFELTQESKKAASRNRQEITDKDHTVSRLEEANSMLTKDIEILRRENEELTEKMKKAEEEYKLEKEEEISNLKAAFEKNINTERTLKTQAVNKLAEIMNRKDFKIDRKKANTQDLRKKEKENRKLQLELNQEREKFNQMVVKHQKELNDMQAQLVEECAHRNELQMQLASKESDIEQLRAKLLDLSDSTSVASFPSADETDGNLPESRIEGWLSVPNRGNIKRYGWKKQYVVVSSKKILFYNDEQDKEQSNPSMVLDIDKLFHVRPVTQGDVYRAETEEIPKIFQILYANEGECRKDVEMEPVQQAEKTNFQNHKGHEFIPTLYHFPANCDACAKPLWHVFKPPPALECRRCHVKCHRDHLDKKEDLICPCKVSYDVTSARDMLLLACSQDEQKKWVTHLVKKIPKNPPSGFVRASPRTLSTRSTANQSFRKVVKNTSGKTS
Sequence of PKBβ(h) (P31751 whole entry): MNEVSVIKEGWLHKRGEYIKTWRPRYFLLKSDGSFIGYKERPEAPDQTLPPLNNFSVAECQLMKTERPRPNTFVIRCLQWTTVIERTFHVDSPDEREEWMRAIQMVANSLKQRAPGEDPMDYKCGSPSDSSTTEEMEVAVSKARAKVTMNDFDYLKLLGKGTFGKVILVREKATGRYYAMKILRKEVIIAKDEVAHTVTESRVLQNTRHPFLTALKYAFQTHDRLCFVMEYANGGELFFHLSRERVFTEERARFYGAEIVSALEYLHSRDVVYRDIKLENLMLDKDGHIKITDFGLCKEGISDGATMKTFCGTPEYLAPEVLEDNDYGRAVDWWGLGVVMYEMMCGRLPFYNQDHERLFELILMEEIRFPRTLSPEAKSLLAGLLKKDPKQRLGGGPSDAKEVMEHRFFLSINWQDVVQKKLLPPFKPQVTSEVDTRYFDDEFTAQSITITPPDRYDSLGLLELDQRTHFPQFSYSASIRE
Sequence of Yes(h) (P07947 whole entry): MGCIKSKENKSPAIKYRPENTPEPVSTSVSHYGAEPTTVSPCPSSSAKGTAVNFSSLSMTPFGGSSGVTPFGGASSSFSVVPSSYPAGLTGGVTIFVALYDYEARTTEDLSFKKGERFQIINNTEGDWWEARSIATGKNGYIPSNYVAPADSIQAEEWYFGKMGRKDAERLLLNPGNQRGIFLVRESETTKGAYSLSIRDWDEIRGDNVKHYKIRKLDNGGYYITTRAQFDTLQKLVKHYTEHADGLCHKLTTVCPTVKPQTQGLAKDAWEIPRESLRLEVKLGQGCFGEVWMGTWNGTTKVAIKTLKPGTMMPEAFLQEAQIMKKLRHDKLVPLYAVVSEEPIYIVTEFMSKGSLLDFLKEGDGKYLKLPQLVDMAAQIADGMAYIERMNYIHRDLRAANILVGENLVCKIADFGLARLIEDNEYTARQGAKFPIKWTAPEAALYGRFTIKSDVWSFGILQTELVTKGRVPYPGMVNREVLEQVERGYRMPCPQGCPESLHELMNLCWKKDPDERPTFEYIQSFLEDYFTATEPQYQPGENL
Sequence of Lyn(m) (P25911 whole entry): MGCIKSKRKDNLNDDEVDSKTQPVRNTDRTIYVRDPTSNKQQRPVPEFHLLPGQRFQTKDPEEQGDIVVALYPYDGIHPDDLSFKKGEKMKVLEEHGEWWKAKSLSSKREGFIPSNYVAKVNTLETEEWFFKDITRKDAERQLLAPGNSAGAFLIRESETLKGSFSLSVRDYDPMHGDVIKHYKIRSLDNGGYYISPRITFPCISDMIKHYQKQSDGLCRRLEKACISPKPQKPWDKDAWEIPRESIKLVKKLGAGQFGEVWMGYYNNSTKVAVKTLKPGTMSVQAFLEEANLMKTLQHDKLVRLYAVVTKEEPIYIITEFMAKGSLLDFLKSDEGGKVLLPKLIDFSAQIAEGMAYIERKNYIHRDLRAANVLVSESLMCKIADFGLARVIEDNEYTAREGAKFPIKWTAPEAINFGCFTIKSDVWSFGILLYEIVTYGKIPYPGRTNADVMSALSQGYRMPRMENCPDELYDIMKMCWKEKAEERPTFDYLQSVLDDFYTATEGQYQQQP

For `CN1CCCC1CCNC(=O)c1cn2c3c(c(N4CCC(c5cnccn5)C4)c(F)cc3c1=O)Oc1cc3ccccc3cc1-2` (centres unmarked) [Compound A-1], the remaining activity at 2.5 µM worked out at 86% on CDK2/cyclinA(h); 89% on Lyn(m); 108% at MKK4(m); 99% on PKA(b); 48% at PKBβ(h); 91% on ROCK-I(h). In addition, at Yes(h), the remaining activity at 2.5 µM is 81%.

In the case of `CC(=O)N1CCN(c2ccc3c(=O)c(C(=O)NCCN4CCCC4)c4n(C)c5ccccc5n4c3n2)CC1` [Compound B-1], the remaining activity at 2.5 µM at CDK2/cyclinA(h) worked out at 94%; at Lyn(m), 106%; at MKK4(m), 99%; at PKA(b), 96%; on PKBβ(h) it was 106%; at ROCK-I(h), 101%. At Yes(h), the remaining activity at 2.5 µM is 96%.
